Assay: Stability of the crystalline solvate form on drying, followed by XRPD
Format: physicochemical
Description: XRPD analyses were performed using a PANalytical X′pert pro with PIXcel detector (128 channels), scanning the samples between 3 and 35° 20. Solid Compound (1) was gently ground to release any agglomerates and loaded onto a multi-well plate with a Mylar polymer film to support the sample. The multi-well plate was then placed into the diffractometer and analyzed using Cu K radiation (a1 λ=1.54060 Å; a2=1.54443 Å; β=1.39225 Å; a1: a2 ratio=0.5) running in transmission mode (step size 0.0130° 20, step time 18.87s) using 40 kV/40 mA generator settings. Data were visualized and images generated using the HighScore Plus 4.7 desktop application (PANalytical, 2017). The 20 position was calibrated using alumina powder reference standard on a monthly basis.
100 mg of anhydrous Compound (1) was temperature cycled in 600 μL of acetone for 24 hours. Accordingly, 600 μL of acetone was added in 200 μL aliquots to a vile containing 100 mg of anhydrous Compound (1), to form a movable slurry. The vile was then capped, wrapped in parafilm and temperature cycled in an incubator shaker between ambient temperature and 40° C. with a 4 hour hold at each temperature. After 24 hours, the solid Compound (1) Acetone Solvate Form was isolated by centrifugation.
Approximately 200 mg of anhydrous Compound (1) was weighed into a scintillation vial and 1 mL of DMSO added to form a slurry. The slurry was then temperature cycled between ambient temperature and 40° C. in 4 hour cycles for 48 hours. After this time, the sample was dried in a 40° C. oven. On removal from the oven, the sample remained wet, so the sample was isolated by centrifuge filtration and then dried under vacuum at ambient conditions over night. After drying, the sample was reanalyzed by XRPD to be Compound (1) DMSO Solvate Form.
FIG. 4 depicts a non-normalized X-ray powder diffraction pattern for Compound (1) DMSO Solvate Form. The XRPD pattern was stable on drying under vacuum.

| SMILES | Crystallinity / XRPD pattern after gentle drying (72 hours gentle drying at ambient temperature (no vacuum), repreparation by temperature cycling) | Solid form obtained after complete drying (complete drying of the product) | Crystallinity / XRPD pattern after gentle drying (drying at 40° C. for 24 hours) | XRPD pattern stability on drying (drying under vacuum) |
| --- | --- | --- | --- | --- |
| COC[C@@]1(O)CC[C@H]2[C@@H](CC[C@@H]3[C@@H]2CC[C@]2(C)[C@@H](C(=O)Cn4nnc(C)n4)CC[C@@H]32)C1 [Compound (1) Acetone Solvate Form] | the XRPD pattern had not changed, there was a significant drop in crystallinity | produces crystalline anhydrous Compound (1) | significant loss in crystallinity, but negligible change in the XRPD pattern | – |
| COC[C@@]1(O)CC[C@H]2[C@@H](CC[C@@H]3[C@@H]2CC[C@]2(C)[C@@H](C(=O)Cn4nnc(C)n4)CC[C@@H]32)C1 [Compound (1) DMSO Solvate Form] | – | – | – | stable |

Reference: patent US20260242410A1, “CRYSTALLINE FORMS OF A NEUROACTIVE STEROID” (Sage Therapeutics, Inc., priority 2022, published 2026)
